How the values were obtained:
barnyardgrass [1] = experiment: Test A pre-/postemergence herbicide test; type: in vivo, Echinochloa crus-galli
How it was run: (§1)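 Seeds sown in sandy loam received a preemergence directed soil spray of compound in non-phytotoxic solvent with surfactant; postemergence plants (2–10 cm, one- to two-leaf stage) were sprayed to runoff at the same time. After ~10 days in greenhouse, injury was rated visually versus untreated controls (0 = no effect, 100 = complete control).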

large crabgrass [2] = experiment: Test A pre-/postemergence herbicide test; type: in vivo, Digitaria sanguinalis
How it was run: as §1

giant foxtail [3] = experiment: Test A pre-/postemergence herbicide test; type: in vivo, Setaria faberi
How it was run: as §1

morningglory [4] = experiment: Test A pre-/postemergence herbicide test; type: in vivo, Ipomoea spp.
How it was run: as §1

redroot pigweed = experiment: Test A pre-/postemergence herbicide test; type: in vivo, Amaranthus retroflexus
How it was run: as §1

velvetleaf [5] = experiment: Test A pre-/postemergence herbicide test; type: in vivo, Abutilon theophrasti
How it was run: as §1

barnyardgrass [6] = experiment: Test B pre-/postemergence herbicide test; type: in vivo, Echinochloa crus-galli; conditions: for Plant response rating, Barnyardgrass: preemergence; for Barnyardgrass plant response rating: postemergence, visual rating, scale 0 (no effect) to 100 (complete control)
How it was run: (§2)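 Seeds were planted and treated preemergence with compounds formulated in a non-phytotoxic solvent mixture containing surfactant, while plants at the 1- to 4-leaf stage (2 to 18 cm) received postemergence sprays. Flooded paddy plants were grown to the 2-leaf stage. After 13 to 15 days in a greenhouse, injury was visually rated 0–100 against untreated controls.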

Surinam grass = experiment: Test B pre-/postemergence herbicide test; type: in vivo, Urochloa decumbens; conditions: for Plant response rating, Surinam Grass: preemergence; for Surinam Grass plant response rating: postemergence, visual rating, scale 0 (no effect) to 100 (complete control)
How it was run: (§3)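 Plants compared with untreated controls 13–15 days post-treatment and given a visual 0–100 injury score. Applications: preemergence to seeds; postemergence at 1- to 4-leaf (2–18 cm); paddy species flooded, 2-leaf stage. Vehicle non-phytotoxic, surfactant included.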

cocklebur = experiment: Test B pre-/postemergence herbicide test; type: in vivo, Xanthium strumarium; conditions: for Plant response rating, Cocklebur: preemergence; for Cocklebur plant response rating: postemergence, visual rating, scale 0 (no effect) to 100 (complete control)
How it was run: as §2

corn = experiment: Test B pre-/postemergence herbicide test; type: in vivo, Zea mays; conditions: for Plant response rating, Corn: preemergence; for Corn plant response rating: postemergence, visual rating, scale 0 (no effect) to 100 (complete control)
How it was run: as §3

large crabgrass [7] = experiment: Test B pre-/postemergence herbicide test; type: in vivo, Digitaria sanguinalis; conditions: for Plant response rating, Crabgrass, Large: preemergence; for Crabgrass, Large plant response rating: postemergence, visual rating, scale 0 (no effect) to 100 (complete control)
How it was run: as §3

giant foxtail [8] = experiment: Test B pre-/postemergence herbicide test; type: in vivo, Setaria faberi; conditions: for Plant response rating, Foxtail, Giant: preemergence; for Foxtail, Giant plant response rating: postemergence, visual rating, scale 0 (no effect) to 100 (complete control)
How it was run: as §3

lambsquarters = experiment: Test B pre-/postemergence herbicide test; type: in vivo, Chenopodium album; conditions: for Plant response rating, Lambsquarters: preemergence; for Lambsquarters plant response rating: postemergence, visual rating, scale 0 (no effect) to 100 (complete control)
How it was run: as §3

morningglory [9] = experiment: Test B pre-/postemergence herbicide test; type: in vivo, Ipomoea coccinea; conditions: for Plant response rating, Morningglory: preemergence; for Morningglory plant response rating: postemergence, visual rating, scale 0 (no effect) to 100 (complete control)
How it was run: as §2

pigweed = experiment: Test B pre-/postemergence herbicide test; type: in vivo, Amaranthus retroflexus; conditions: for Plant response rating, Pigweed: preemergence; for Pigweed plant response rating: postemergence, visual rating, scale 0 (no effect) to 100 (complete control)
How it was run: as §3

rice [10] = experiment: Test B pre-/postemergence herbicide test; type: in vivo, Oryza sativa; conditions: preemergence
How it was run: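 Greenhouse pot assay with simultaneous preemergence (treated seed) and postemergence (2–18 cm seedlings) applications of surfactant-containing, non-phytotoxic solvent formulations. Response scored visually 13–15 days later on a 0–100 scale, 100 meaning complete control.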

velvetleaf [11] = experiment: Test B pre-/postemergence herbicide test; type: in vivo, Abutilon theophrasti; conditions: for Plant response rating, Velvetleaf: preemergence; for Velvetleaf plant response rating: postemergence, visual rating, scale 0 (no effect) to 100 (complete control)
How it was run: as §3

blackgrass = experiment: Test B postemergence herbicide test; type: in vivo, Alopecurus myosuroides; conditions: postemergence, visual rating, scale 0 (no effect) to 100 (complete control)
How it was run: (§4)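 Postemergence plants were sprayed with formulated test chemicals at 2 to 18 cm height (1- to 4-leaf stage); paddy species were grown to the 2-leaf stage. After 13 to 15 days in a greenhouse, injury was rated visually against untreated controls on a 0–100 scale (0 = no effect, 100 = complete control).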

wheat = experiment: Test B postemergence herbicide test; type: in vivo, Triticum aestivum; design: key to Wheat plant response rating: 0 = no effect, 100 = complete control; conditions: postemergence, 500 g ai/ha; visual rating, scale 0 (no effect) to 100 (complete control)
How it was run: (§5)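 Each value is a visual 0–100 response rating taken against controls 13 to 15 days after treatment in the greenhouse. Plants received formulated chemical postemergence at the 1- to 4-leaf stage or, in flooded paddy, at the 2-leaf stage.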

wild oat = experiment: Test B postemergence herbicide test; type: in vivo, Avena fatua; conditions: postemergence, visual rating, scale 0 (no effect) to 100 (complete control)
How it was run: as §5

rice [12] = experiment: Test B flooded paddy test; type: in vivo, Oryza sativa; conditions: 1000 g ai/ha, visual rating, scale 0 to 100 (0 no effect, 100 complete control), 13 to 15 days
How it was run: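 Formulated test chemicals went onto postemergence plants measuring 2 to 18 cm, at one to four leaves. For the paddy assay, species had reached two leaves. Scoring took place 13–15 days later by eye, relative to untreated plants, using 0 for no effect up to 100 for full control.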

[13] = test system: small flower umbrella sedge; experiment: Test B flooded paddy test; type: in vivo, Cyperus difformis; conditions: 1000 g ai/ha, visual rating, scale 0 to 100 (0 no effect, 100 complete control), 13 to 15 days
How it was run: as §4

ducksalad = experiment: Test B flooded paddy test; type: in vivo, Heteranthera limosa; conditions: 1000 g ai/ha, visual rating, scale 0 to 100 (0 no effect, 100 complete control), 13 to 15 days
How it was run: as §4

barnyardgrass [14] = experiment: Test B flooded paddy test; type: in vivo, Echinochloa crus-galli; conditions: 1000 g ai/ha, visual rating, scale 0 to 100 (0 no effect, 100 complete control), 13 to 15 days
How it was run: as §4

[15] = Postemergence, 500 g ai/ha, 0 to 100 scale, 0 no effect, 100 complete control
[16] = Postemergence, 2000 g ai/ha, 0 to 100 scale, 0 no effect, 100 complete control
[17] = Preemergence, 500 g ai/ha, visual rating, 0 to 100 scale (0 no effect, 100 complete control)
[18] = Preemergence, 2000 g ai/ha, visual rating, 0 to 100 scale (0 no effect, 100 complete control)
[19] = preemergence, 500 g ai/ha, visual injury, 0 to 100 scale (0 no effect, 100 complete control)
[20] = 500 g ai/ha, visual rating 0-100, 0 no effect, 100 complete control
[21] = 125 g ai/ha, 0 to 100 scale, 0 is no effect, 100 is complete control

Compound: CCNC(=O)c1cc(C)cc(NC(=O)c2cc(C(C)(C)C)nn2CC)n1 [Compound 150]
- Barnyardgrass plant response rating (barnyardgrass [1]; [15]): 30
- Plant response rating, Barnyardgrass (barnyardgrass [1]; [16]): 65
- Barnyardgrass plant response rating (barnyardgrass [1]; [17]): 50
- Barnyardgrass plant response rating (barnyardgrass [1]; [18]): 80
- Crabgrass, Large plant response rating (large crabgrass [2]; [15]): 15
- Plant response rating, Crabgrass, Large (large crabgrass [2]; [16]): 50
- Crabgrass, Large plant response rating (large crabgrass [2]; [17]): 25
- Crabgrass, Large plant response rating (large crabgrass [2]; [18]): 50
- Foxtail, Giant plant response rating (giant foxtail [3]; [15]): 20
- Plant response rating, Foxtail, Giant (giant foxtail [3]; [16]): 25
- Foxtail, Giant plant response rating (giant foxtail [3]; [17]): 15
- Foxtail, Giant plant response rating (giant foxtail [3]; [18]): 55
- Morningglory plant response rating (morningglory [4]; [15]): 0
- Plant response rating, Morningglory (morningglory [4]; [16]): 10
- Morningglory plant response rating (morningglory [4]; [17]): 10
- Morningglory plant response rating (morningglory [4]; [18]): 35
- Pigweed plant response rating (redroot pigweed; [15]): 80
- Plant response rating, Pigweed (redroot pigweed; [16]): 75
- Pigweed plant response rating (redroot pigweed; [18]): 100
- Pigweed plant response rating (redroot pigweed; [19]): 75
- Velvetleaf plant response rating (velvetleaf [5]; [15]): 25
- Plant response rating, Velvetleaf (velvetleaf [5]; [16]): 15
- Velvetleaf plant response rating (velvetleaf [5]; [18]): 50
- Velvetleaf plant response rating (velvetleaf [5]; [19]): 20
- Plant response rating, Barnyardgrass (barnyardgrass [6]; [20]): 80
- Barnyardgrass plant response rating (barnyardgrass [6]; 125 g ai/ha): 10
- Barnyardgrass plant response rating (barnyardgrass [6]; 500 g ai/ha): 50
- Plant response rating, Barnyardgrass (barnyardgrass [6]; [21]): 30
- Plant response rating, Surinam Grass (Surinam grass; [20]): 10
- Surinam Grass plant response rating (Surinam grass; 125 g ai/ha): 10
- Surinam Grass plant response rating (Surinam grass; 500 g ai/ha): 40
- Plant response rating, Surinam Grass (Surinam grass; [21]): 10
- Plant response rating, Cocklebur (cocklebur; [20]): 0
- Cocklebur plant response rating (cocklebur; 125 g ai/ha): 60
- Cocklebur plant response rating (cocklebur; 500 g ai/ha): 80
- Plant response rating, Cocklebur (cocklebur; [21]): 0
- Plant response rating, Corn (corn; [20]): 20
- Corn plant response rating (corn; 125 g ai/ha): 10
- Corn plant response rating (corn; 500 g ai/ha): 50
- Plant response rating, Corn (corn; [21]): 0
- Plant response rating, Crabgrass, Large (large crabgrass [7]; [20]): 10
- Crabgrass, Large plant response rating (large crabgrass [7]; 125 g ai/ha): 10
- Crabgrass, Large plant response rating (large crabgrass [7]; 500 g ai/ha): 10
- Plant response rating, Crabgrass, Large (large crabgrass [7]; [21]): 0
- Plant response rating, Foxtail, Giant (giant foxtail [8]; [20]): 60
- Foxtail, Giant plant response rating (giant foxtail [8]; 125 g ai/ha): 0
- Foxtail, Giant plant response rating (giant foxtail [8]; 500 g ai/ha): 10
- Plant response rating, Foxtail, Giant (giant foxtail [8]; [21]): 0
- Plant response rating, Lambsquarters (lambsquarters; [20]): 100
- Lambsquarters plant response rating (lambsquarters; 125 g ai/ha): 50
- Lambsquarters plant response rating (lambsquarters; 500 g ai/ha): 70
- Plant response rating, Lambsquarters (lambsquarters; [21]): 0
- Plant response rating, Morningglory (morningglory [9]; [20]): 20
- Morningglory plant response rating (morningglory [9]; 125 g ai/ha): 20
- Morningglory plant response rating (morningglory [9]; 500 g ai/ha): 40
- Plant response rating, Morningglory (morningglory [9]; [21]): 0
- Plant response rating, Pigweed (pigweed; [20]): 100
- Pigweed plant response rating (pigweed; 125 g ai/ha): 70
- Pigweed plant response rating (pigweed; 500 g ai/ha): 90
- Plant response rating, Pigweed (pigweed; [21]): 70
- Plant response rating, Rice (rice [10]; [20]): 40
- Plant response rating, Rice (rice [10]; [21]): 0
- Plant response rating, Velvetleaf (velvetleaf [11]; [20]): 10
- Velvetleaf plant response rating (velvetleaf [11]; 125 g ai/ha): 20
- Velvetleaf plant response rating (velvetleaf [11]; 500 g ai/ha): 60
- Plant response rating, Velvetleaf (velvetleaf [11]; [21]): 0
- Blackgrass plant response rating (blackgrass; 125 g ai/ha): 0
- Blackgrass plant response rating (blackgrass; 500 g ai/ha): 10
- Wheat plant response rating (wheat): 10
- Oat, Wild plant response rating (wild oat; 125 g ai/ha): 20
- Oat, Wild plant response rating (wild oat; 500 g ai/ha): 20
- Rice plant response rating (rice [12]): 40
- Sedge, Umbrella plant response rating [13]: 50
- Ducksalad plant response rating (ducksalad): 20
- Barnyardgrass plant response rating (barnyardgrass [14]): 70

Reference: patent US20060069132A1, “Azolecarboxamide herbicides” (priority 2004, published 2006)
